Experimental data reported in ChEMBL document CHEMBL3832034.
“And” between values parts separate entries of the source, which are not always exact repeats. Identical values can stand only once.

Experiments:
Type in all cases: ADME, organism-based
[1] = tested on: Homo sapiens; experiment: (§1) Pharmacokinetic parameters for Lidocaine, and Prilocaine after topical administration of EMLA cream intact skin on the lateral thighs, vaginal fornices and penile skin of subjects; design: dose 1.5 g, route topical; details: in vivo, topical_or_ocular; for C / Tmax: route topical
[2] = Evaluation of pharmacokinetic parameters for Lidocaine, and Prilocaine following intravenous (IV) administration of Lidocaine or application of a cream.; details: human, dosed compound id 50, dosed compound name PRILOCAINE, tissue Plasma
[3] = as §1; design: dose 1.5 g, route topical; details: human, in vivo, topical or ocular, 1.5 g; dosed compound id 50, dosed compound name PRILOCAINE, regimen Single dose, study dosing duration 3 hours, tissue Plasma
[4] = dose 0.5 to 3.3 g, dosed compound id 50, dosed compound name PRILOCAINE, gender female, regimen Single dose, study dosing duration 10 to 60 minutes, tissue Plasma

Cmax [1] | clearance ([2]; in vivo, route iv) [mL/min/kg] | half-life ([2]; in vivo, route iv) [h] | Vd ([2]; in vivo, route iv, read-out: Vss) [L/kg] | fraction unbound ([2]; topical or ocular, route topical, read-out: Protein binding (converted)) | Cmax [3] [ng/mL] | C [1, 4] [ng/mL] | Tmax [1, 4] [h] | C ([1]; dose 0.5 to 3.3 g, dosed compound id 50, dosed compound name PRILOCAINE, gender male, regimen Single dose, study dosing duration 15 minutes, tissue Plasma) [ng/mL] | Tmax ([1]; dose 1.5 g, dosed compound id 50, dosed compound name PRILOCAINE, regimen Single dose, study dosing duration 3 hours, tissue Plasma) [h] | Tmax ([1]; dose 1.5 g, dosed compound id 50, dosed compound name PRILOCAINE, regimen Single dose, study dosing duration 24 hours, tissue Plasma) [h] | Cmax ([1]; dosed compound id 50, dosed compound name PRILOCAINE, regimen Single dose, study dosing duration 24 hours, tissue Plasma) [ng/mL] | Structure (SMILES)
120 ng/mL and 280 ng/mL |  |  |  |  |  |  |  |  |  |  |  | CCN(CC)CC(=O)Nc1c(C)cccc1C [LIDOCAINE]
 | 38 | 1.17 | 2.6 | 0.45 | 70 | 40 to 346 | 0.35 to 1.58 | 2.5 to 7 | 4 | 10 | 140 | CCCNC(C)C(=O)Nc1ccccc1C (configuration not stated) [PRILOCAINE]
